Consider 6 compounds from BindingDB's records for doi:10.1002/cbic.201402321 (The University of Texas At Austin, 2014).

What is called IC50 is the concentration needed to halve the response being measured.

The target in the assay is T1, Eukaryotic elongation factor 2 kinase (Homo sapiens, UniProt O00418).
T1 sequence (O00418 whole entry): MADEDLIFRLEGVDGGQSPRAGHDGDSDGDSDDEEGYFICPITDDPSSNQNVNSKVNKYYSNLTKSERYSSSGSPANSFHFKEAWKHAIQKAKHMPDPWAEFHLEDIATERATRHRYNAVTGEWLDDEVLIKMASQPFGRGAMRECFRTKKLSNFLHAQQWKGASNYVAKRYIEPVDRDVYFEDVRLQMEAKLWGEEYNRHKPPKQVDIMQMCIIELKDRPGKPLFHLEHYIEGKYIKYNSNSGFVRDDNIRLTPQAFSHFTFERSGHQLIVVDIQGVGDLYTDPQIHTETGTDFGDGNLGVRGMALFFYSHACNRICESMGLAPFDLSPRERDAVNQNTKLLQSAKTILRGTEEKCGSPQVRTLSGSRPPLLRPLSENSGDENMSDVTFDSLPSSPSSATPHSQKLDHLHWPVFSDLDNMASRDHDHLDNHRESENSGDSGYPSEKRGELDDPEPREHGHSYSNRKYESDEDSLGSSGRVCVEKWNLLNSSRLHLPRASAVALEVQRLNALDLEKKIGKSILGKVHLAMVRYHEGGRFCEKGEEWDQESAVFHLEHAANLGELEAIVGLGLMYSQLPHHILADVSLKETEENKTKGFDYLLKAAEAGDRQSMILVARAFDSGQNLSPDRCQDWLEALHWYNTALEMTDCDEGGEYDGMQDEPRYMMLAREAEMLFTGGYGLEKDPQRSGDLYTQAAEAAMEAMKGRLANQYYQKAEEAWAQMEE
The assay is described as follows: Kinase assay. The procedure:
WT eEF-2K (2 nM) was preincubated with various concentrations of inhibitors (0-1000 uM) in assay buffer containing CaCl2 (150 uM), calmodulin (1 uM), triton X-100 (0.01%), and peptide substrate (50 uM) for 60 min. The reactions were started by addition of [gamma-P32]-ATP (100 uM, specific activity = 1000 cpm/pmol).
The compound `N#CC1C(=O)NC(=O)C(C#N)C1c1ccc(Cl)c(Cl)c1` (stereo unspecified) [4-(3,4-dichlorophenyl)-2,6-dioxopiperidine-3,5-dicarbonitrile (2)] gave an IC50 of 30 µM.
The value for `COc1cccc(C2C(C#N)C(=O)NC(=O)C2C#N)c1` (stereo unspecified) [4-(3-methoxyphenyl)-2,6-dioxo-3,5-piperidinedicarbonitrile (MDP)] was 25 µM; that for `N#CC1C(=O)NC(=O)C(C#N)C1c1c(Cl)cccc1Cl` (stereo unspecified) [4‐(2,6‐dichlorophenyl)‐2,6‐dioxopiperidine‐3,5‐ dicarbonitrile (5)] was 57 µM.
The value for `Cc1ccccc1C1C(C#N)C(=O)NC(=O)C1C#N` (stereo unspecified) [4‐(2‐methylphenyl)‐2,6‐dioxopiperidine‐3,5‐ dicarbonitrile (1)] was 33 µM.
In turn, `N#CC1C(=O)NC(=O)C(C#N)C1c1cccc(O)c1` (stereo unspecified) [4‐(3‐hydroxyphenyl)‐2,6‐dioxopiperidine‐3,5‐ dicarbonitrile (4)] came in with an IC50 of 66 µM.
The compound `Cc1ccc(C2C(C#N)C(=O)NC(=O)C2C#N)cc1` (stereo unspecified) [4‐(4‐methylphenyl)‐2,6‐dioxopiperidine‐3,5‐ dicarbonitrile (3)] registered an IC50 of 46 µM.
